For one data set, the system named is humans. The note with it: oral NAC three times daily, exposed acutely to isocapnic hypoxia; cited from earlier work.
The next data set has as its system freely moving rats. As to the kind of experiment: Arterial blood-gas chemistry and A-a gradient in morphine-treated rats. Format: in vivo, rat.
For another data set, the system named is rats. The experiment in a line: Hemodynamics (preliminary toxicology). The class given is in vivo, rat. As to conditions: 500 μmol/kg, i.v. The source says:
FIGS. 11(A-C) illustrate plots showing the effects of test agents (500 μmol/kg, i.v.) on hemodynamic variables. Data are presented mean±SEM (n=8 rats per group).

Data set [1] has as its system conscious (adult male) C57 black 6 (C57BL6) mice. The experiment in a line: Ventilatory responses in conscious mice. The class given is in vivo, mouse.
The test system of data set [2] is conscious male adult Sprague-Dawley rats. As to the kind of experiment: Plethysmographic ventilatory responses to test compounds in conscious rats. The class given is in vivo, rat.
Data set [3] concerns adult male rats. As to the kind of experiment: Hargreaves Hind-paw Latency Test, morphine 1 mg/kg. Format: in vivo, rat. As to conditions: for effect on the antinociception actions of morphine (Hargreaves): 500 μmol/kg IV with morphine sulfate 1.0 mg/kg IV; for thermal nociception (Hargreaves Testing) when given alone: 500 μmol/kg IV, tested 20 to 30 min post-injection; for Hargreaves hind-paw withdrawal latency: FIG. 26 study.

Data set [4] relates to freely moving adult male Sprague-Dawley rats. As to the kind of experiment: Whole-body plethysmography of ventilatory parameters in morphine-treated rats. As to conditions: rat, in vivo. The method, then:
Permissions, rats, surgical procedures and blinding of protocols. All studies were carried out in accordance with the NIH Guide for the Care and Use of Laboratory Animals (NIH Publication No. […]) revised in 1996. The protocols were approved by the Animal Care and Use Committees of the University of Virginia, Case Western Reserve University and Loma Linda University. In addition, all studies were carried out in compliance with the ARRIVE (Animal Research: Reporting of In Vivo Experiments) guidelines. Adult male Sprague-Dawley rats (Harlan, Madison, WI, USA) were implanted with jugular vein catheters under 2% isoflurane anesthesia and some rats received femoral arterial catheters. The rats were allowed at least four days to recover from surgery before use. All arterial catheters were flushed daily with heparin solution (50 units of heparin in phosphate-buffered saline at 0.1 M, pH 7.4). All catheters were flushed with phosphate-buffered saline (0.1 M, pH 7.4) approximately four hours before commencement of the experiments. All studies were performed in a quiet laboratory with relative humidity of 49±2% and room temperature of 21.4±0.2° C. […] Also, please note that the antinociception and ventilatory studies were done in separate groups of rats so as to not complicate the respiratory measurements. The recording (plethysmography, antinociception) sessions and the arterial blood gas assays were done by a particular investigator who administered the opioid, vehicle or test drug such as d-cystine diME. The syringes containing the vehicle or test drug were made up by another investigator, such that the investigator running the actual experiment was blinded to the treatment protocol. In every case, the data files resulting from a particular study were first collated and analyzed by another investigator in the group.
Ventilatory parameters were recorded in freely moving rats by whole body plethysmography (PLY3223; Data Sciences International, St. Paul, MN). The rats were placed in individual chambers and given 60 min to acclimatize to allow true resting ventilatory parameters to be established. […] The rats received another injection of vehicle or 1-NACme (500 μmol/kg, IV) 15 min later and ventilatory parameters were recorded for a further 60 min.
The provided software (Fine Pointe, BUXCO) constantly corrected digitized values for changes in chamber temperature and humidity. Pressure changes associated with the respiratory waveforms were then converted to volumes (i.e., TV, PIF and PEF) using the algorithm of Epstein and colleagues. Specifically, factoring in chamber temperature and humidity, the cycle analyzers filtered the acquired signals, and BUXCO algorithms (Fine Pointe) generated an array of box flow data that identified a waveform segment as an acceptable breath. From that data vector, the minimum and maximum values were determined. Flows at this point were considered to be “box flow” signals.
The recorded data (1 min bins) and derived parameters, Vt/Ti and Response Area (cumulative percent changes from pre-values) were taken for statistical analyses. The pre-drug 1 min bins excluded occasional marked deviations from resting due to movements or scratching by the rats. These exclusions ensured accurate determinations of baseline parameters. The data are presented as mean±SEM. All data unless other-wise stated (see immediately below) were analyzed by one-way or two-way analysis of variance followed by Student's modified t test with Bonferroni corrections for multiple comparisons between means using the error mean square terms from each ANOVA. A value of P<0.05 denoted the initial level of statistical significance that was modified according to the number of comparisons between means.

The test system of data set [5] is adult male rats. As to the kind of experiment: Von Frey Test, morphine 1 mg/kg. The class given is in vivo, rat. As to conditions: for force needed to initiate hind-paw withdrawal (Von Frey): FIG. 27 study.

Each structure is given as a SMILES string. Entries after “also recorded” stand apart in the source; their conditions may differ.

On to `CC(=O)N[C@@H](CS)C(=O)O` [NAC, N-acetylcysteine], for which the “increase in minute ventilation” value in the data set on humans was 24±4%.
Turning to `COC(=O)[C@H](N)CSSC[C@@H](N)C(=O)OC` [D-Cystine diME, D-Cystine dimethylester], in the data set on freely moving rats (bolus 500 μmol/kg i.v. after morphine 10 mg/kg i.v., Example 1), the “deleterious actions of morphine on ABG chemistry and A-a gradient” value was “reversed”. Further, the “changes in ABG chemistry (pH, pCO2, pO2 and sO2)” value in the data set with freely moving rats (freely moving rats, morphine 10 mg/kg IV, then drug 500 μmol/kg IV 15 min later, FIG. 18) was “reversed immediately”. In the data set with freely moving rats (freely moving rats, morphine 10 mg/kg IV, then drug 500 μmol/kg IV 15 min later, FIG. 19), the “changes in A-a gradient” value is on record as “reversed immediately”. In addition, in the data set on rats, the “hemodynamic responses (FIG. 11)” value is “minimal responses; also recorded: did not elicit significant responses”. Also, the “duration of increases in frequency of breathing, tidal volume and minute ventilation” value in data set [1] was “approximately 20 min”; in data set [2] (500 μmol/kg, i.v.), 20 min. Besides, the “frequency of breathing, tidal volume and minute ventilation (response)” value in data set [1] (250 mol/kg dose) is “robust increases”; in data set [2] (500 mol/kg, i.v.), “robust increases”. Also, the “total ventilatory responses recorded over the 30 min post-injection period (% baseline), comparison of efficacy” value in data set [2] (500 μmol/kg, i.v., FIG. 2) is on record as “most efficacious of the test compounds”. Also, the “how sustained the ventilatory effect is, compared with D-CYSee and L-CYSee” value in data set [2] (500 mol/kg, i.v.) was “most sustained effect”. Besides, the “dose-dependency of ventilatory responses” value in data set [2] (FIG. 3) is recorded as “clearly dose-dependent”. The entries for the “effect on the antinociception actions of morphine (Hargreaves)” value in the data set on adult male rats [3] (listed as D-cystine diME) and in the data set on adult male rats [3] (listed as d-cystine diME) were “not different from each other” and “neither thiolester affected”, respectively. Moreover, the “thermal nociception (Hargreaves Testing) when given alone” value is listed as “not a significant difference” with adult male rats [3] and “neither d-cystine diME nor L-cystine diME affected” in the data set with adult male rats [3] (listed as d-cystine diME). In addition, the “Hargreaves hind-paw withdrawal latency” value with adult male rats [3] (Morphine+D-Cystine diME) was 16.9 ± 1.0 s; in the data set on adult male rats [3] (given alone, D-cystine diME 500 μmol/kg IV, morphine sulfate 1 mg/kg IV), 12.9 ± 1.0 s. The “immediate effects on Freq, TV or MV” value in data set [4] is reported as “minimal immediate effects”. Also, the “effect on the antinociception actions of morphine (Von Frey)” value in the data set with adult male rats [5] (500 μmol/kg IV with morphine sulfate 1.0 mg/kg IV, listed as d-cystine diME) is “neither thiolester affected”. The “mechanical allodynia (Von Frey Testing) when given alone” value in the data set with adult male rats [5] (500 μmol/kg IV, tested 20 to 30 min post-injection, listed as d-cystine diME) is on record as “neither d-cystine diME nor L-cystine diME affected”. For the same compound, the “force needed to initiate hind-paw withdrawal (Von Frey)” value is recorded as 176±5 grams in the data set with adult male rats [5] (Morphine+D-cystine diME) and 144±8 grams in the data set on adult male rats [5] (given alone, D-cystine diME 500 μmol/kg IV, morphine 1 mg/kg IV).
